PMC10269165 (Antimicrobial Agents and Chemotherapy, 2023)

Legend:
HCT-8 cells = assay: WST-1 cytotoxicity assay in HCT-8 cells; format: cell-based, human; settings: 24 h, read-out: Mean IC50 ± SEM, Cytotoxicity
Experimental: Compounds were tested for cytotoxicity in human ileocecal colorectal adenocarcinoma cells (HCT-8) (ATCC CCL-244; RRID:CVCL_2478) by using the cell proliferation reagent WST-1 (Roche) according to the manufacturer’s protocol. The WST-1 assay is a quantitative colorimetric assay for measurement of metabolically active cells. This assay is based on the reduction of the tetrazolium salt (WST-1) by viable cells. About 5 × 10^4 HCT-8 cells were seeded per well in 96-well plates and grown overnight in 200 μL of RPMI 1640 medium (without phenol red; Gibco) supplemented with 2.5 g/L of glucose, 1 mM sodium pyruvate, 1.5 g/L of sodium bicarbonate, 10% heat-inactivated FBS (Gibco), and 1× antibiotic-antimycotic (Gibco) at 37°C with 5% CO2 in a humidified incubator. Upon reaching 80 to 90% confluence, cells were treated with various concentrations of the test compounds for 24 h. Control wells received equivalent volumes of DMSO used in the reconstituted compounds. After 24 h of culture, 10 μL of the WST-1 reagent was added to each well, and the plates were incubated in the dark for 1 h at 37°C with 5% CO2. The plates were well agitated, and 150 μL of the medium from each well was transferred to a new clear flat-bottomed black 96-well plate (Corning). The absorbance was read at a test wavelength of 440 nm and a reference wavelength of 690 nm using a multimode microplate reader (Spectra Max iD3; Molecular Devices, USA). All of the reactions were prepared in triplicate. The dose-response curves were generated by nonlinear regression analysis with GraphPad PRISM software using control-normalized data to determine the half-maximal cytotoxicity (IC50) concentrations.

[1] = tested on: MDR isolate of H. contortus, exsheathed L3 larvae; assay: Larval motility assay (LMA), Worminator; format: cell-based, Haemonchus contortus

Row | Compound | IC50 (HCT-8 cells) | Percent inhibition of larval motility ([1]; 62.5 µM, 1 hour) | Percent inhibition of larval motility ([1]; 62.5 µM, 72 hours) | Percent inhibition of larval motility ([1]; 62.5 µM, 96 hours) | Percent inhibition of larval motility ([1]; 62.5 µM, Initial) | Percent inhibition of larval motility ([1]; 250 µM, 4 hours) | Percent inhibition of larval motility ([1]; 250 µM, 72 hours)
1 | COc1ccc(-c2c(C)c(C(=O)O)nc(-c3ccc4c(O)c(OC)c5c(c4n3)=NC(C)(C)N=5)c2N)c(O)c1OC [NSC62709] | 299 ± 6.27 µM |  |  |  |  |  | 
2 | COc1cc(C)c2c(c1C=O)Oc1c(c(C)c(O)c3c1C(O)OC3=O)OC2=O (centres unmarked) [NSC87511] | 172 ± 8.68 µM |  |  |  |  |  | 
3 | CO[C@H]1/C=C/O[C@@]2(C)Oc3c(C)c(O)c4c(O)c(cc(O)c4c3C2=O)NC(=O)/C(C)=C\C=C\[C@H](C)[C@H](O)[C@@H](C)[C@@H](O)[C@@H](C)[C@H](OC(C)=O)[C@@H]1C [NSC133100] | 102 ± 16.6 µM | 13.5% | -9.5% | -1.6% | -25.7% | -5.6% | -1.2%
4 | CO[C@@H]1/C=C\O[C@]2(C)Oc3c(C)c(O)c4c(O)c(c(CN(C)C)c(O)c4c3C2=O)NC(=O)/C(C)=C\C=C[C@@H](C)[C@@H](O)[C@H](C)[C@@H](O)[C@H](C)[C@H](OC(C)=O)[C@@H]1C [NSC145612] | 302 ± 9.33 µM | 16.7% | 18.3% | 3.8% | 10.1% | 47.0% | 9.2%
5 | CO[C@@H]1/C=C/O[C@@]2(C)Oc3c(C)c(O)c4c(c3C2=O)C(=N[C@@H]2CC[C@@H](O)O[C@H]2C)C=C(NC(=O)/C(C)=C\C(=O)[C@@H]2C[C@@H]2[C@H](O)[C@@H](C)[C@@H](O)[C@@H](C)[C@H](OC(C)=O)[C@@H]1C)C4=O [NSC177383] | 85.5 ± 2.77 µM | 3.9% | 19.1% | 14.7% | 16.5% | -42.2% | 46.1%
